Measured values: ChEMBL document CHEMBL4706629, “New derivatives of 4'-phenyl-2,2':6',2″-terpyridine as promising anticancer agents” (Eur J Med Chem, 2021)
Active and inactive are the calls of the source. The calls are words filed in the database; no cut-off is given here.

What was measured:
PANC-1 [1] = assay: Up regulation of p53 expression in human PANC-1 cells at 0.5 to 5 uM measured after 24 hrs by Western blot analysis relative to control; format: functional, cell-based; details: dose 0.5-5 µM
PANC-1 [2] = assay: Cell cycle arrest in human PANC-1 cells assessed as accumulation at S-phase at 5 uM measured after 24 hrs by muse cell analyser (reference value: 14.3 to 14.9%); format: functional
MCF7 [3] = assay: Cell cycle arrest in human MCF7 cells assessed as accumulation at G0/G1-phase at 5 uM measured after 24 hrs by muse cell analyser (reference value: 52.65 to 53.3%); format: functional
[4] = Up regulation of HIF1 expression in human MCF7 cells at 1 to 5 uM measured after 24 hrs by Western blot analysis relative to control; format: functional; details: dose 1-5 µM
[5] = Up regulation of HIF1 expression in human PANC-1 cells at 0.5 to 5 uM measured after 24 hrs by Western blot analysis relative to control; format: functional; details: dose 0.5-5 µM
NHDF = assay: Cytotoxicity against NHDF cells assessed as reduction in cell viability measured after 72 hrs by MTS assay; format: cell-based; details: Homo sapiens
MCF7 [6] = assay: Induction of apoptosis in human MCF7 cells assessed as viable cells at 5 uM measured after 48 hrs by Annexin V and dead cell kit analysis (reference value: 97.4%); format: functional; details: read-out: Activity
MCF7 [7] = assay: Induction of apoptosis in human MCF7 cells assessed as late apoptotic cells at 7.5 uM measured after 48 hrs by Annexin V and dead cell kit analysis (reference value: 1.45%); format: functional
PANC-1 [8] = assay: Cell cycle arrest in human PANC-1 cells assessed as accumulation at G2/M-phase at 5 uM measured after 24 hrs by muse cell analyser (reference value: 36.3 to 36.88%); format: functional
PANC-1 [9] = assay: Cytotoxicity against human PANC-1 cells assessed as reduction in cell viability measured after 72 hrs by MTS assay; format: functional, cell-based; details: PANC-1, 72 h
MCF7 [10] = assay: Effect on cdc2 expression in human MCF7 cells at 1 to 5 uM measured after 24 hrs by Western blot analysis; format: functional, cell-based; details: dose 1-5 µM
PANC-1 [11] = assay: Induction of apoptosis in human PANC-1 cells assessed as necrotic cells at 7.5 uM measured after 48 hrs by Annexin V and dead cell kit analysis (reference value: 1.05%); format: functional
MCF7 [12] = assay: Induction of apoptosis in human MCF7 cells assessed as viable cells at 7.5 uM measured after 48 hrs by Annexin V and dead cell kit analysis (reference value: 97.4%); format: functional; details: read-out: Activity
MCF7 [13] = assay: Induction of apoptosis in human MCF7 cells assessed as late apoptotic cells at 5 uM measured after 48 hrs by Annexin V and dead cell kit analysis (reference value: 1.45%); format: functional
MCF7 [14] = assay: Down regulation of cyclin E1 expression in human MCF7 cells at 1 uM measured after 24 hrs by Western blot analysis; format: functional, cell-based
MCF7 [15] = assay: Cell cycle arrest in human MCF7 cells assessed as accumulation at G2/M-phase at 7.5 uM measured after 24 hrs by muse cell analyser (reference value: 30.92 to 33.6%); format: functional
PANC-1 [16] = assay: Cell cycle arrest in human PANC-1 cells assessed as accumulation at G0/G1-phase at 5 uM measured after 24 hrs by muse cell analyser (reference value: 48.28 to 48.7%); format: functional

In the case of `c1ccc(-c2cn(-c3ccc(-c4cc(-c5ccccn5)nc(-c5ccccn5)c4)cc3)nn2)nc1`, the Activity (PANC-1 [1]) is reported as “inactive”, the Activity (PANC-1 [2]) is reported as 7.3% and the Activity (MCF7 [3]) is reported as 55.97%. For the same compound, the “fold change (FC)” value [4] was 45, the “fold change (FC)” value [5] was 30 and the IC50 (NHDF) was over 25000 nM. For the same compound, the viability at 5 µM (MCF7 [6]) was 67.1%, the Activity (MCF7 [7]) was 17.45% and the Activity (PANC-1 [8]) was 35.25%. The IC50 (PANC-1 [9]) was 114 nM, the Activity (MCF7 [10]) was “inactive” and the Activity (PANC-1 [11]) was 1.8%. For the same compound, the viability at 7.5 µM (MCF7 [12]) was 50.2%, the Activity (MCF7 [13]) was 11.4% and the Activity (MCF7 [14]) was “Active”. The Activity (MCF7 [15]) was 22% and the Activity (PANC-1 [16]) was 55.1%.
